Experimental data reported in patent US20100029604A1, “ANTIBACTERIAL COMBINATION AND ITS USE” (priority 2007, published 2010).
Read-outs that look alike come from different tables or passages of the source.

Experiments:
E. coli SHV-5 = assay: Synergy MIC, inhibitor at 4 μg/mL (Example 4); assay type: cell-based; settings: SHV-5, class A, inhibitor constant 4 μg/mL
Escherichia coli TEM-9 = assay: MIC, characterised β-lactamase producing strain (Example 5, Tables 5-7); assay type: cell-based
Description: (§1) The MIC experiments were performed in duplicate in 96-well microtiter plates using CAMHB. […] The bacterial suspension with final inoculum 10^5 CFU/mL was transferred to the test medium containing the antibacterial substances. In each well of a 96-well microtiter plate was combined 50 μL of bacterial inoculum, 50 μL of antibiotic dilutions (or media for determination of the MIC of the antibiotic in the absence of test compound). Each plate included 4 wells with no bacterial inoculum (negative control) and 4 wells with no test compound and no antibiotic (positive control). The plates were incubated at 35° C. for 24 h. Purity check and colony counts on each inoculum suspension was performed to ensure that the final inoculum concentration routinely obtained closely approximates 5×10^5 CFU/mL. In addition the assay is routinely monitored by testing standard antibiotics and ensuring that MIC values are within the recommended ranges for the respective strains.
(§2) This test permits comparisons to be made between bacterial growth in the presence of antibiotic alone and bacterial growth in the presence of both an antibiotic and a novel (test) compound.

C. freundii SHV-5 = assay: Synergy MIC, inhibitor at 4 μg/mL (Example 4); assay type: cell-based; settings: SHV-5, class A, inhibitor constant 4 μg/mL
Escherichia coli CMY-2 = assay: MIC, characterised β-lactamase producing strain (Example 5, Tables 5-7); assay type: cell-based
Description: as §1, §2

Escherichia coli CMY-7 = assay: as above; assay type: cell-based
Description: as §1, §2

Escherichia coli FOX-1 = assay: as above; assay type: cell-based
Description: as §1, §2

Escherichia coli OXA-1 = assay: as above; assay type: cell-based
Description: as §1, §2

Escherichia coli OXA-7 = assay: as above; assay type: cell-based
Description: as §1, §2

Escherichia coli SHV-1 = assay: as above; assay type: cell-based
Description: as §1, §2

Escherichia coli SHV-4 = assay: as above; assay type: cell-based
Description: as §1, §2

Escherichia coli TEM-21 = assay: as above; assay type: cell-based
Description: as §1, §2

Escherichia coli TEM-36 = assay: as above; assay type: cell-based
Description: as §1, §2

Escherichia coli TEM-8 = assay: as above; assay type: cell-based
Description: as §1, §2

[1] = tested on: Klebsiella pneumoniae LAT-2; assay: as above; assay type: cell-based
Description: as §1, §2

[2] = tested on: Pseudomonas aeruginosa OXA-6; assay: as above; assay type: cell-based
Description: as §1, §2

[3] = tested on: Pseudomonas aeruginosa PSE-3; assay: as above; assay type: cell-based
Description: as §1, §2

[4] = tested on: Klebsiella pneumoniae ATCC 700603; assay: MIC broth microdilution (Example 2); settings: Klebsiella pneumoniae ATCC 700603 producing SHV-18
C. freundii ESBL = assay: Synergy MIC, inhibitor at 4 μg/mL (Example 3); assay type: cell-based; settings: ESBL (Table 3 r25), inhibitor constant 4 μg/mL
Description: (§3) Stock solutions of the test compounds and control antibiotics were prepared in distilled water according to the NCCLS guidelines [Methods for dilution antimicrobial tests for bacteria that grow aerobically. NCCLS document M7-A5; 2000; vol. 19. National Committee for Clinical Laboratory Standards, Villanova, Pa.]. All drug weights were corrected for salt forms and refer to the pure drug substance.
(§4) All tested strains and Clinical isolates were either purchased from the American Type Culture Collection (ATCC), or from the in-house company culture collection.
(§5) Stock cultures were prepared from broth cultures grown at 35° C. for 18-22 h without agitation and subsequent addition of 5% DMSO (v/v, final concentration) as cryoprotectant and stored frozen in liquid nitrogen. Mueller-Hinton II broth (MHBII) (BBL Cockeysville, Md.) was used for the testing procedure.
(§6) The in vitro activities of the antibiotics were determined by the broth microdilution method and agar dilution technique as recommended by CLSI guidelines. The MIC experiments were performed in duplicate in 96-well microtiter plates using MHB. Serial twofold dilutions of each antibiotic either alone or in combination with a constant amount (4 μg/mL) of a β-lactamase inhibitor were prepared in MHBII broth. A sterile pipette tip was used to mix the contents of each well (one tip was used going from the low to the high concentration in the same column). The bacterial suspension with final inoculum 10^5 CFU/mL was transferred to the test medium containing the antibacterial substances by a multipoint inoculator (Dynatech, Chantilly, Va., USA). The plates were then incubated at 35° C. for 24 h.
(§7) Representative compound of Formula (I) was evaluated against the serine-based Class A β-lactamases including TEM-type, SHV-type extended spectrum β-lactamases (ESBL) and various non-ESBL enzymes of enterobacteriaceae as well as BRO-type enzymes of Moraxella catarrhalis and penicillinases of Staphylococcus aureus.

E. cloacae SHV-12 = assay: Synergy MIC, inhibitor at 4 μg/mL (Example 3); assay type: cell-based; settings: β-lactamase SHV-12 (Table 3 r11), inhibitor constant 4 μg/mL
Description: as §3, §4, §5, §6, §7

E. coli ESBL = assay: Synergy MIC, inhibitor at 4 μg/mL (Example 3); assay type: cell-based; settings: inhibitor constant 4 μg/mL
Description: as §3, §4, §5, §6, §7

E. coli SHV-3 = assay: Synergy MIC, inhibitor at 4 μg/mL (Example 3); assay type: cell-based; settings: β-lactamase SHV-3 (Table 3 r9), inhibitor constant 4 μg/mL
Description: as §3, §4, §5, §6, §7

K. pneumoniae SHV = assay: Synergy MIC, inhibitor at 4 μg/mL (Example 3); assay type: cell-based; settings: β-lactamase SHV, inhibitor constant 4 μg/mL
Description: as §3, §4, §5, §6, §7

E. coli TEM-1 = assay type: cell-based; settings: inhibitor constant 4 μg/mL
Description: as §3, §4, §5, §6, §7

E. coli TEM-3 = assay type: cell-based; settings: β-lactamase TEM-3 (Table 3 r16), inhibitor constant 4 μg/mL
Description: as §3, §4, §5, §6, §7

S. aureus PC = assay: Synergy MIC, inhibitor at 4 μg/mL (Example 3); assay type: cell-based, Staphylococcus aureus; settings: S. aureus, β-lactamase PC, inhibitor constant 4 μg/mL
Description: as §3, §4, §5, §6, §7

[5] = Table 6, LK-157 at constant 4 μg/mL in combination
[6] = Table 7, combination at constant concentration ratio (2:1)

## CO/N=C(\C(=O)N[C@@H]1C(=O)N2C(C(=O)[O-])=C(C[N+]3(C)CCCC3)CS[C@H]12)c1csc(N)n1 [cefepime]
E. coli SHV-5
  MIC: 25.6 µg/mL
Escherichia coli TEM-9; Escherichia coli TEM-9, functional group 2be, LK-157 in combination constant 4 μg/mL
  MIC: 128 µg/mL

## CO/N=C(\C(=O)N[C@@H]1C(=O)N2C(C(=O)O)=C(COC(C)=O)CS[C@H]12)c1csc(N)n1 [cefotaxime]
C. freundii SHV-5
  MIC: 25.6 µg/mL
E. coli SHV-5
  MIC: > 25.6 µg/mL
Escherichia coli CMY-2; [5]
  MIC: 32 µg/mL
Escherichia coli CMY-7; [5]
  MIC: 32 µg/mL
Escherichia coli FOX-1; [5]
  MIC: 2 µg/mL
Escherichia coli OXA-1; [5]
  MIC: 0.5 µg/mL
Escherichia coli OXA-7; [5]
  MIC: 0.25 µg/mL
Escherichia coli SHV-1; [5]
  MIC: 0.063 µg/mL
Escherichia coli SHV-4; [5]
  MIC: 16 µg/mL
Escherichia coli TEM-21; [5]
  MIC: 32 µg/mL
Escherichia coli TEM-36; [5]
  MIC: 0.25 µg/mL
Escherichia coli TEM-8; [5]
  MIC: 4 µg/mL
[1]; [5]
  MIC: 16 µg/mL
[2]; [5]
  MIC: 16 µg/mL
[3]; [5]
  MIC: 16 µg/mL
[4]
  susceptibility of the strain to the antibiotic: susceptible

## CC(C)(O/N=C(\C(=O)N[C@@H]1C(=O)N2C(C(=O)[O-])=C(C[n+]3ccccc3)CS[C@H]12)c1csc(N)n1)C(=O)O [ceftazidime]
C. freundii ESBL
  MIC: > 25.6 µg/mL
E. cloacae SHV-12
  MIC: > 25.6 µg/mL
E. coli ESBL; first listed (Table 3 r21)
  MIC: 1.6 µg/mL
E. coli ESBL; fourth listed (Table 3 r24)
  MIC: > 25.6 µg/mL
E. coli ESBL; second listed (Table 3 r22)
  MIC: 0.4 µg/mL
E. coli ESBL; third listed (Table 3 r23)
  MIC: 0.2 µg/mL
E. coli SHV-3
  MIC: 1.6 µg/mL
K. pneumoniae SHV; first listed (Table 3 r12)
  MIC: > 25.6 µg/mL
K. pneumoniae SHV; second listed (Table 3 r13)
  MIC: 12.8 µg/mL
E. coli TEM-1; β-lactamase TEM-1, first listed (Table 3 r14)
  MIC: 0.2 µg/mL
E. coli TEM-1; β-lactamase TEM-1, second listed (Table 3 r15)
  MIC: 3.2 µg/mL
E. coli TEM-3
  MIC: > 25.6 µg/mL
S. aureus PC; first listed (Table 3 r19)
  MIC: 12.8 µg/mL
S. aureus PC; second listed (Table 3 r20)
  MIC: 25.6 µg/mL
Escherichia coli CMY-2; [6]
  MIC: ≧128 μg/mL
Escherichia coli CMY-7; [6]
  MIC: ≧128 μg/mL
Escherichia coli FOX-1; [6]
  MIC: 8 µg/mL
Escherichia coli OXA-1; [6]
  MIC: 0.25 µg/mL
Escherichia coli OXA-7; [6]
  MIC: 0.5 µg/mL
Escherichia coli SHV-1; [6]
  MIC: 0.25 µg/mL
Escherichia coli SHV-4; [6]
  MIC: ≧128 μg/mL
Escherichia coli TEM-21; [6]
  MIC: 16 µg/mL
Escherichia coli TEM-36; [6]
  MIC: 0.5 µg/mL
Escherichia coli TEM-8; [6]
  MIC: ≧128 μg/mL
Escherichia coli TEM-9; Table 7, Escherichia coli TEM-9, combination at constant concentration ratio (2:1)
  MIC: ≧128 μg/mL
[1]; [6]
  MIC: ≧128 μg/mL
[2]; [6]
  MIC: 2 µg/mL
[3]; [6]
  MIC: 4 µg/mL
[4]
  susceptibility of the strain to the antibiotic: resistant
